SMILES | melting point
COc1ccc(Br)cc1/C=c1\sc2nc3ccccc3n2c1=O | 250 to 252 °C
O=C(/C=C/c1ccc(OCC2CO2)cc1)c1ccccc1 (stereo not drawn) | 92 °C
Cc1c([N+](=O)[O-])cc(C(=O)O)cc1[N+](=O)[O-] | 155 to 159 °C
Cc1c(C=O)cnn1-c1ccc(F)cc1 | 113 to 115 °C
Cc1c(Cl)cc([N+](=O)[O-])cc1Cl | 63 to 64 °C
CC1CC=CC2(O1)OC1CC(=O)OC1C1(O)C(=O)c3ccccc3C(=O)C21O (stereo not drawn) | 238 °C
CC(C=CC=C(C)C=CC1=C(C)CC(O)CC1(C)C)=CC=CC=C(C)C=CC=C(C)C=CC1=C(C)CC(O)CC1(C)C (stereo not drawn) | 216 °C
O=C1NC(=S)SC1=Cc1cccc(C=C2SC(=S)NC2=O)c1 | 316 °C
O=C1NC(=S)NC(=O)C1=NNc1ccc(Cl)cc1 | 300 °C
O=Cc1ccc(F)c(C(=O)O)c1 | 175 to 178 °C
Cc1cc(C(=O)CBr)ccc1Cl | 56 to 57 °C
CCCCCCCNC(=O)OCC1OC(OC)C(O)C(O)C1O (stereo not drawn) | 103 to 105 °C
O=C(O)c1cccc2c1OCO2 | 224 to 225 °C
COc1c(Cl)cc(Cl)c(OC)c1C(N)=O | 148 to 149 °C
CC(C)(C)OC(=O)NC(CCC(N)=O)C(=O)O (stereo not drawn) | 119 °C
CNNC | -9 °C
COC(=O)[C@@]12[C@H]3c4c(c(-c5ccccc5)c5ccccc5c4-c4ccccc4)[C@@H]1C=C[C@]32C(=O)OC | 210 °C
O=[N+]([O-])c1ccc2[nH]c(=S)[nH]c2c1 | 275 °C
CCOc1ccc(NC(=O)CN)cc1 | 100 °C
COc1ccccc1C1(C)CCc2oc3c(Br)cc(Br)cc3c2-c2oc(C)cc21 (stereo not drawn) | 194 °C
O=C(O)c1cccc(-c2cnco2)c1 | 259 to 261 °C
CC(=O)OC1CCCCC1 | -65 °C
CCCCC(CC)CN (stereo not drawn) | -76 °C
CSc1nc(N)c(C(=O)c2ccc([N+](=O)[O-])cc2)s1 | 200 to 202 °C
C[Si](C)(O)c1ccc([Si](C)(C)O)cc1 | 135 °C
COc1ccc(N)c(C(=O)O)c1 | 151 °C

SMILES | melting point
CC(C)(C)OC(=O)C(Cl)(Cl)Cl | 25.5 °C
N#Cc1cccc(N=C=O)c1 | 53 °C
CC(=C/C=N/NC(N)=O)C(C)(C)C | 148 °C
CS(=O)(=O)c1csc(C(=O)O)c1Cl | 234 to 236 °C
COc1ccc(-c2nnc3n2NC(c2ccc(O)c(OC)c2)S3)cc1 (stereo not drawn) | 173 °C
CC(=O)NCc1ccccc1 | 61 °C
C=C(CC(=O)O)C(=O)O | 175 °C
Cc1cc(N)n[nH]1 | 41 to 43 °C
CC(=O)Nc1ccc(C=CC(=O)c2ccccc2)cc1 | 179 °C
COC(=O)c1ccccc1CC#N | 48 °C
Cc1cc(C)c(CS)c(C)c1 | 47 °C
CC(C)(C)c1cc(C#N)cc(C(C)(C)C)c1O | 144 to 146 °C
Cc1ccc2c(ccc3ccccc32)c1 | 58 °C
O=C(OC1C(=O)OC(=O)C1OC(=O)c1ccccc1)c1ccccc1 (stereo not drawn) | 174 °C
CC(=O)c1ccc(S(=O)(=O)Cl)cc1 | 84 °C
ClC(Cl)=C(Cl)C(Cl)=C(Cl)Cl | -21 °C
O=C(O)CCP(=O)(O)O | 165 to 166 °C
N#Cc1c(F)ccc([N+](=O)[O-])c1F | 52.5 °C
O=C1/C(=N\Nc2ccc(Br)cc2)C(C(F)(F)F)=NN1c1ccccc1 | 175 °C
Brc1cccc(-n2cccc2)c1 | 63 to 64 °C
CC/C=C(\C)C(=O)O | 24.4 °C
O=c1[nH]c2ncccc2o1 | 214 to 215 °C
O=C(O)C1OC(C(=O)O)C(C(=O)O)C1C(=O)O (stereo not drawn) | 205 to 210 °C
CC(=O)Oc1c(C)cc(OCC(O)CNC(C)C)c(C)c1C (stereo not drawn) | 106 °C
O=c1ccn(C2CCC(CO)O2)c(=O)[nH]1 (stereo not drawn) | 128 °C
O=C(O)C=Cc1cc(F)ccc1F | 139 °C

SMILES | melting point
CC(CCC(=O)O)c1ccccc1 (stereo not drawn) | 13 °C
COC(=O)C1=C(C)NC(=O)C1CC(=O)O (stereo not drawn) | 160 to 162 °C
COc1ccc(C(=O)O)c(OC)c1 | 109 °C
CC(CCC(O)(c1ccccc1)c1ccccc1)C1CCC2C3C(O)CC4CC(O)CCC4(C)C3CC(O)C12C (stereo not drawn) | 162 to 170 °C
O=C(c1ccc2ccccc2c1)c1noc(-c2ccc(Cl)cc2)c1S(=O)(=O)c1ccccc1 | 165 °C
COc1ccc2c(c1)N(CC(C)CN1CCC(O)CC1)c1ccccc1S2 (stereo not drawn) | 138 °C
FC1(F)C(Cl)=C(Cl)C(F)(F)C1(F)F | -106 °C
CCCCCCCCC(=O)OCCCC | -38 °C
O=C(Cl)Cc1ccc2ccccc2c1 | 60 to 61 °C
COC(=O)c1ccccc1S(=O)(=O)NC(=O)Nc1nc(C)nc(OC)n1 | 162 °C
N#Cc1c(NC(=O)c2ccc(Cl)cc2Cl)sc2c1CCCC2 | 201 to 202 °C
O=C(CCl)c1ccc(Cl)cc1Cl | 54 °C
c1ccc2cc3c(cc2c1)OCCOCCOCCOCCO3 | 117 to 118 °C
O=C(OCCOc1ccc(Cl)cc1Cl)c1ccccc1 | 66 °C
CC1CC(=O)c2cc(F)ccc2O1 (stereo not drawn) | 71 °C
c1cc(-c2cnco2)ccn1 | 127 to 128 °C
O=C1CCC(=O)C1 | 152 °C
Brc1ccc(-c2c(Br)c(Br)c(Br)c(Br)c2Br)c(Br)c1Br | 225 °C
CCCC(CC(OCC)OCC)OCC (stereo not drawn) | -100 °C
O=[N+]([O-])C1CCCCC1 | -34 °C
Cc1cc(C)c(C)c(S(=O)(=O)NCC(=O)O)c1C | 167 °C
C=COCCCl | -70 °C
Nc1ccc(Oc2ccccc2)nc1 | 71 to 72 °C
Fc1ccc2ccccc2c1 | 61 °C
CCC(C)C1(CC)C(=O)NC(=O)NC1=O (stereo not drawn) | 167 °C
CCCCCCCCCCCC(=O)N1CC(=O)NC(=O)C1 | 114 to 116 °C

SMILES | melting point
C=COCCCCCCCCCC | -41 °C
O=Cc1ccc(-c2ccc(-c3cccs3)s2)s1 | 133 to 135 °C
CC(=O)COc1c([N+](=O)[O-])ccc(F)c1F | 40 to 45 °C
CC(C)(C)OC(=O)N1C2CCC1CC(=O)C2 | 58 to 59 °C
C=C(NC(C)=O)C(=O)CCC(N)=O | 130 °C
COc1ccc2c(c1)/C(=N/Nc1ccc([N+](=O)[O-])cc1[N+](=O)[O-])C2 | 220 to 222 °C
O=C(O)C1C2CCC(C2)C1C(=O)c1ccccc1 (stereo not drawn) | 180 to 183 °C
CC(NC(=O)COCCN1C(=O)c2ccccc2C1=O)C(=O)NC(CCC(=O)O)C(=O)O (stereo not drawn) | 192 to 195 °C
O=C1Cc2cc(C(=O)CBr)ccc2N1 | 225 °C
CC1CC(N(C)C)C(O)C(OC2C(C)CC(C)C(=O)C=CC(C)C(C(C)O)OC(=O)C2C)O1 (stereo not drawn) | 157 °C
COc1cc2c3c(c4ccc(OC)c(OC)c4c2cc1OC)CN1CCCC1C3 (stereo not drawn) | 220 °C
Nc1cccc(Cl)n1 | 71 °C
COc1cc(OC)n2nc(S(=O)(=O)Nc3c(Cl)ccc(C)c3Cl)nc2n1 | 211 °C
CCN(Cc1ccccc1)c1ccccc1 | 35 °C
O=C1CC(c2ccccc2)c2ccccc21 (stereo not drawn) | 77 °C
CC12CC(=CO)C(=O)CC1CCC1C2CCC2(C)C1CCC2(C)O (stereo not drawn) | 188 °C
O=C1CCc2cc(F)ccc21 | 39 °C
CCCCCCCCCCCCN | 28.3 °C
CCCCCCCCCCCCOC(=O)CCSCCC(=O)OCCCCCCCCCCCC | 41 °C
CC(C)(C)c1cc2c(O)c(c1)Cc1cc(C(C)(C)C)cc(c1O)Cc1cc(C(C)(C)C)cc(c1O)Cc1cc(C(C)(C)C)cc(c1O)C2 | 300 °C
[O-][P+](O)(O)CCN(CP(c1ccccc1)c1ccccc1)CP(c1ccccc1)c1ccccc1 | 147 °C
C=C(C)C1CCC(C)CC1O (stereo not drawn) | 78 °C
CCOC(=O)c1cc(C)n(Cn2nc(C(=O)OCC)cc2C)n1 | 130 °C
Cc1nc2ccccc2[nH]c1=O | 270 °C
CC(=O)Nc1ccc(N=Nc2ccc(N)cc2)cc1 | 212 °C
Brc1ccc(Br)s1 | -6 °C

SMILES | melting point
O=C(O)c1ccc(N2CCOCC2)cc1 | 278 to 281 °C
CCCCCCCCCCCCCCCCOC(=O)C(C)O (stereo not drawn) | 41 °C
N#CCN=C(c1ccccc1)c1ccccc1 | 83 to 86 °C
CCCCCCCCCCCCCCCCCC(=O)Nc1ccc(O)cc1 | 134 °C
CCOC(=O)C(CCc1ccccc1)NC(C)C(=O)N1Cc2ccccc2CC1C(=O)O (stereo not drawn) | 125 °C
O=C(C=Cc1cccc(O)c1)c1ccccc1 | 156 to 158 °C
C[Si](C)(C)Nc1ncnc2c1ncn2[Si](C)(C)C | 86 °C
CCCCCCCCCCCCCC(=O)CC | 43 °C
CN1C(=O)NC(=O)C1(C)C | 163 °C
O=C(O)[C@@H]1CCCC[C@H]1C(=O)c1cccs1 (relative stereo) | 179 to 184 °C
O=C(O)c1ccc(O)cc1C(=O)O | 191 to 194 °C
CC(C)(C)OC(=O)N[C@H](Cc1ccc(C#N)cc1)C(=O)O | 153 °C
CC(C)(C)c1cc([N+](=O)[O-])cc([N+](=O)[O-])c1O | 126 °C
CCOC(=O)C(N)=S | 63 °C
O=C(CCl)c1cccc(C(=O)CCl)c1 | 90 °C
CCCCCCCCCCC(=O)OCC(COC(=O)CCCCCCCCCC)OC(=O)CCCCCCCCCC | 24 to 32 °C
C1CSCS1 | -50 °C
O=C1C(c2ccccc2)=Nc2cc([N+](=O)[O-])ccc21 | 185 °C
OCCNC1CCCCC1 | 36 °C
O=[N+]([O-])c1ccc(N=Nc2ccc(O)c3ccccc23)cc1 | 275 °C
COC(=O)c1ccc(N2CCCCC2)nc1 | 70 to 72 °C
O=C(O)CCCc1ccc2ccc3cccc4ccc1c2c34 | 185 to 190 °C
Brc1ccc2cccnc2c1 | 34 °C
CC1(c2ccccc2)CNCCO1 (stereo not drawn) | 36 °C

Reference: a melting point compilation (Tetko et al.)
